Test results taken from US11267802B2 (BEBETTER MED INC., priority 2015, dated 2022).

Tests used:
[1] = test system: H358; test: Inhibition assay on tumor cell proliferation (CellTiter-Glo), H358; type: cell-based, Human; conditions: Homo sapiens, NCI-H358; H358 (wild-type EGFR), 72 hours, 10% bovine serum
Description: (§1) By using a CellTiter-Glo luminescence cell viability test kit (Promega, # G7572), the content of adenosine triphosphate (ATP) was determined to assess the cell viability.
(§2) Human colon cancer cell line LOVO and human non-small-cell lung cancer H358 express wild-type EGFR. Human non-small-cell lung cancer cell line HCC827 carries deletion mutation in exon 19 (ex19del). Those cell lines are purchased from Shanghai Fudan IBS Cell Resource Center and American Tissue Culture Collection (ATCC).
(§3) The assay procedure is as follows. The cells in a cell culture plate were digested with a pancreatic enzyme, re-suspended in a DPBS culture medium, and had the cell density counted by Scepter automated cytometer (Millipore # PHCC00000). The cells were diluted to a solution of 44,000 cells per ml. The cell solution with adjusted density was added to the cell assay plate at 90 microliters per well. The plate was placed in an incubator with 5% CO2 at 37° C. for 24 hours of incubation, and then added with different concentrations of subject compounds. The cells were incubated for 72 hours with the compounds in presence of 10% bovine serum. The content of ATP was determined by a CellTiter-Glo® Luminescent Cell Viability Assay kit (see the manufacturer's instruction for details) to evaluate cell-growth inhibition.
(§4) Briefly, 30 μl of CellTiter-Glo® reagent was added to each well, and then shaken for 10 minutes to induce cell lysis. The fluorescent signal was detected and recorded by Fluoroskan Ascent FL (Thermo). The max signal value was obtained from the cells treated by dimethyl sulfoxide for 72 hours. The min signal value was obtained from the medium alone (the number of the cells was 0). Inhibitory rate %=(max signal value−compound signal value)/(max signal value−min signal value)×100. The data was processed by GraphPad Prism V5.0 software (GraphPad Software, San Diego, Calif.). Sigmoidal dose-response curve fitting was performed to calculate the IC50 value.

[2] = test system: H1975; test: Inhibition assay on tumor cell proliferation (CellTiter-Glo), H1975; type: cell-based, Human; conditions: Homo sapiens, NCI-H1975; H1975 (L858R and T790M EGFR double mutation), 72 hours, 10% bovine serum
[3] = test system: LOVO; test: Inhibition assay on tumor cell proliferation (CellTiter-Glo), LOVO; type: cell-based, Human; conditions: Homo sapiens; LOVO (wild-type EGFR), 72 hours, 10% bovine serum
Description: as §1, §2, §3, §4

[4] = molecular target: T1, EGFR T790M/L858R (Homo sapiens, UniProt P00533, L858R/T790M); test: Mutant EGFR T790M/L858R activity inhibition assay (Caliper mobility shift); type: biochemical; conditions: read-out: enzyme activity inhibition (IC50) EGFR T790M/L858R
T1 construct: purchased Invitrogen PR8911A
Description: The assay procedure is as follows. […] 5 μl of the compound dissolved in 10% DMSO at a concentration of 5-fold of the final reaction concentration was added to a 384 well plate. 5 μl of 10% DMSO was used in a no-compound control well, while 5 μl of a kinase buffer was used in a no-enzyme activity control well. […] The conversion rate was read on Caliper EZ Reader II (Caliper Life Sciences). The conversion rate was then converted to inhibitory rate.
As used herein, “max” refers to the conversion rate of the DMSO no-compound control well, and “min” refers to the conversion rate of the no-enzyme activity control well. A curve was obtained by plotting the inhibitory rate as a function of the compound concentration. The XLFit excel add-in version 4.3.1 software was used to fit the curve and calculate the IC50. Inhibitory rate %=(max−conversion rate)/(max−min)×100.

T1 sequence (P00533 25-1210 T790M/L858R): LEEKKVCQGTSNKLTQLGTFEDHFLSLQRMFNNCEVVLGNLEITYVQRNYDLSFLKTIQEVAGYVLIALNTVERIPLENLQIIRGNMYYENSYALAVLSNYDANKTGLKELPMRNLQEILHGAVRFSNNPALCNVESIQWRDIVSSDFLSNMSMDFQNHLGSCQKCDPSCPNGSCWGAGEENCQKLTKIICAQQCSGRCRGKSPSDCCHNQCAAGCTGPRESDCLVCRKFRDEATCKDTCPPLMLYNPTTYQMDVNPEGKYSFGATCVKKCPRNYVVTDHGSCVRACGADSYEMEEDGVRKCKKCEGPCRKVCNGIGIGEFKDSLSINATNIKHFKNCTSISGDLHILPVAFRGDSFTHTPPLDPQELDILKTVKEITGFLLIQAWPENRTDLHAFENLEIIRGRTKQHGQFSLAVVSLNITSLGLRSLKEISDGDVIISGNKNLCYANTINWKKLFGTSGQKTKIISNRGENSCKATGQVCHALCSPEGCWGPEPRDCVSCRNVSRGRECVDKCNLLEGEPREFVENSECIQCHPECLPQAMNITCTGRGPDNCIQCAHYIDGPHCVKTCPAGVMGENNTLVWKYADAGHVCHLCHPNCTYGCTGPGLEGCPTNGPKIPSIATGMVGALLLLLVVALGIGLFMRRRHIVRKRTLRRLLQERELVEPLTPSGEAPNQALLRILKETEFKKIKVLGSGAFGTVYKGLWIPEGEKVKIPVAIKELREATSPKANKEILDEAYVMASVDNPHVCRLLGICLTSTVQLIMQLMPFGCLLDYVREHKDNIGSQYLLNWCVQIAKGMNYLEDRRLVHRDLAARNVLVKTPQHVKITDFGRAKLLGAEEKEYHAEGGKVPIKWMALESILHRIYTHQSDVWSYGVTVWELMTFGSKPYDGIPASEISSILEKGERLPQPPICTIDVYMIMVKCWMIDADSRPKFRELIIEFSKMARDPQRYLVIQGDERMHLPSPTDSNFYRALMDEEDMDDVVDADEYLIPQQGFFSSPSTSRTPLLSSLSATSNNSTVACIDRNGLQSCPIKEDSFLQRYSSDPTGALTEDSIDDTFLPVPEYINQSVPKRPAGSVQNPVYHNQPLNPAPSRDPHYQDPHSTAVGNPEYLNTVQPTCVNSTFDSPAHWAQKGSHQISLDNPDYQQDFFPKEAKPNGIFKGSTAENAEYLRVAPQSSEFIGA

Which results are given for `C=CC(=O)Nc1cc(Nc2nccc(-n3c(=O)n(C)c4cc(C#N)ccc43)n2)c(OC)cc1N(C)CCN(C)C` [Compound 52, N-(5-((4-(5-cyano-3-methyl-2-oxo-2,3-dihydro-1H-benzo[d]imidazol-1-yl)pyrimidin-2-yl)amino)-2-((2-(dimethylamino)ethyl)(methyl)amino)-4-methoxyphenyl)acrylamide]?
IC50 [1]: 100 to 1000 nM; IC50 [2]: < 10 nM; melting point: 183 to 185 °C; IC50 [3]: > 1000 nM; IC50 [4]: < 1 nM

Which IC50 [1] does the source give for `C=CC(=O)Nc1cc(Nc2ncc(C(F)(F)F)c(-n3ccc4ccccc43)n2)c(OC)cc1N(C)CCN(C)C` [Compound 5, N-(5-((4-(1H-indol-1-yl)-5-(trifluoromethyl)pyrimidin-2-yl)amino)-2-((2-(dimethylamino)ethyl)(methyl)amino)-4-methoxyphenyl)acrylamide] here?
The IC50 was 100 to 1000 nM.

What about the IC50 [2] of the same molecule?
Its IC50 is less than 10 nM.

And the melting point?
Its melting point is 161 to 162 °C.

And the IC50 [3]?
Its IC50 is greater than 1000 nM.

What about the IC50 [4] of the same molecule?
Its IC50 is 1 to 10 nM.

What does the source list for `C=CC(=O)Nc1cc(Nc2nccc(-n3cc(Cl)c4ccccc43)n2)c(OC)cc1N(C)CCN(C)C` [Compound 46, N-(5-((4-(3-chloro-1H-indol-1-yl)pyrimidin-2-yl)amino)-2-((2-(dimethylamino)ethyl)(methyl)amino)-4-methoxyphenyl)acrylamide]?
IC50 [1]: > 1000 nM; IC50 [2]: 10 to 50 nM; melting point: 142 to 144 °C; IC50 [3]: > 1000 nM; IC50 [4]: 1 to 10 nM

Which results are given for `C=CC(=O)Nc1cc(Nc2nccc(-n3ccc4cc(OCCO)ccc43)n2)c(OC)cc1N(C)CCN(C)C` [Compound 37, N-(2-((2-(dimethylamino)ethyl)(methyl)amino)-5-((4-(5-(2-hydroxyethoxy)-1H-indol-1-yl)pyrimidin-2-yl)amino)-4-methoxyphenyl)acrylamide]?
IC50 [1]: 100 to 1000 nM; IC50 [2]: < 10 nM; melting point: 65 to 67 °C; IC50 [3]: > 1000 nM; IC50 [4]: < 1 nM

Which IC50 [1] does the source give for `CC#CC(=O)Nc1cc(Nc2nccc(-n3ccc4ccccc43)n2)c(OC)cc1N(C)CCN(C)C` [Compound 73, N-(5-((4-(1H-indol-1-yl)pyrimidin-2-yl)amino)-2-((2-(dimethylamino)ethyl)(methyl)amino)-4-methoxyphenyl)but-2-ynamide] here?
Its IC50 is greater than 1000 nM.

And the IC50 [2]?
Its IC50 is 50 to 100 nM.

And the melting point?
Its melting point is 189.7 to 191.8 °C.

What about the IC50 [3] of the same molecule?
The IC50 was greater than 1000 nM.

And the IC50 [4]?
Its IC50 is 1 to 10 nM.

Which results are given for `C=CC(=O)Nc1cc(Nc2nccc(-n3ccc4ccccc43)n2)c(OC)cc1N(C)CCN1CCCC1` [Compound 80, N-(5-(4-(1H-indol-1-yl)pyrimidin-2-ylamino)-4-methoxy-2-(methyl(2-(pyrrolidin-1-yl)ethyl)amino)phenyl)acrylamide]?
IC50 [1]: > 1000 nM; IC50 [2]: < 10 nM; melting point: 151 to 153 °C; IC50 [3]: > 1000 nM; IC50 [4]: 1 to 10 nM

For `C=CC(=O)Nc1cc(Nc2ncc(OC)c(-n3ccc4ccccc43)n2)c(OC)cc1N(C)CCN(C)C` [Compound 6, N-(5-((4-(1H-indol-1-yl)-5-methoxypyrimidin-2-yl)amino)-2-((2-(dimethylamino)ethyl)(methyl)amino)-4-methoxyphenyl)acrylamide], which IC50 [1] is on record?
The IC50 was greater than 1000 nM.

And the IC50 [2]?
The IC50 was less than 10 nM.

And the melting point?
The melting point was 143.3 to 147.8 °C.

And the IC50 [3]?
The IC50 was greater than 1000 nM.

And the IC50 [4]?
Its IC50 is 1 to 10 nM.

With `COc1cc(N(C)CCN(C)C)c(NC(=O)/C=C/CN(C)C)cc1Nc1nccc(-n2ccc3ccccc32)n1` [Compound 69, (E)-N-(5-((4-(1H-indol-1-yl)pyrimidin-2-yl)amino)-2-((2-(dimethylamino)ethyl)(methyl)amino)-4-methoxyphenyl)-4-(dimethylamino)but-2-enamide] as the molecule, how does the IC50 [1] read?
Its IC50 is 100 to 1000 nM.

And the IC50 [2]?
Its IC50 is 50 to 100 nM.

What about the melting point of the same molecule?
The melting point was 116.2 to 118.1 °C.

What about the IC50 [3] of the same molecule?
Its IC50 is 100 to 1000 nM.

And the IC50 [4]?
Its IC50 is less than 1 nM.

Which IC50 [1] does the source give for `C=CC(=O)Nc1cc(Nc2nccc(-n3ccc4cc(F)ccc43)n2)c(OC)cc1N(C)CCN(C)C` [Compound 28, N-(2-((2-(dimethylamino)ethyl)(methyl)amino)-5-((4-(5-fluoro-1H-indol-1-yl)pyrimidin-2-yl)amino)-4-methoxyphenyl)acrylamide] here?
The IC50 was 100 to 1000 nM.

And the IC50 [2]?
The IC50 was less than 10 nM.

And the melting point?
Its melting point is 168 to 170 °C.

And the IC50 [3]?
Its IC50 is greater than 1000 nM.

And the IC50 [4]?
The IC50 was less than 1 nM.

What does the source list for `C=CC(=O)Nc1cc(Nc2nccc(-n3ccc4cc(OC)ccc43)n2)c(OC)cc1N(C)CCN(C)C` [Compound 27, N-(2-((2-(dimethylamino)ethyl)(methyl)amino)-4-methoxy-5-((4-(5-methoxy-1H-indol-1-yl)pyrimidin-2-yl)amino)phenyl)acrylamide]?
IC50 [1]: 100 to 1000 nM; IC50 [2]: < 10 nM; melting point: 117 to 118 °C; IC50 [3]: > 1000 nM; IC50 [4]: < 1 nM

With `C=CC(=O)Nc1cc(Nc2nccc(-n3ccc4cc(C#N)ccc43)n2)c(OC)cc1N(C)CCN(C)C` [Compound 33, N-(5-((4-(5-cyano-1H-indol-1-yl)pyrimidin-2-yl)amino)-2-((2-(dimethylamino)ethyl)(methyl)amino)-4-methoxyphenyl)acrylamide] as the molecule, how does the IC50 [1] read?
Its IC50 is 100 to 1000 nM.

And the IC50 [2]?
Its IC50 is less than 10 nM.

What about the melting point of the same molecule?
Its melting point is 127 to 128 °C.

What about the IC50 [3] of the same molecule?
The IC50 was greater than 1000 nM.

And the IC50 [4]?
The IC50 was less than 1 nM.

Which results are given for `C=CC(=O)Nc1cc(Nc2ncc(N(C)C)c(-n3ccc4ccccc43)n2)c(OC)cc1N(C)CCN(C)C` [Compound 10, N-(5-(5-(dimethylamino)-4-(1H-indol-1-yl)pyrimidin-2-ylamino)-2-((2-(dimethylamino)ethyl)(methyl)amino)-4-methoxyphenyl)acrylamide]?
IC50 [1]: 100 to 1000 nM; IC50 [2]: < 10 nM; melting point: 154 to 155 °C; IC50 [3]: > 1000 nM; IC50 [4]: 1 to 10 nM

Which IC50 [1] does the source give for `C=CC(=O)Nc1cc(Nc2nccc(-n3ccc4c(F)cccc43)n2)c(OC)cc1N(C)CCN(C)C` [Compound 30, N-(2-((2-(dimethylamino)ethyl)(methyl)amino)-5-((4-(4-fluoro-1H-indol-1-yl)pyrimidin-2-yl)amino)-4-methoxyphenyl)acrylamide] here?
The IC50 was 100 to 1000 nM.

And the IC50 [2]?
The IC50 was less than 10 nM.

And the melting point?
The melting point was 165.5 to 166.5 °C.

What about the IC50 [3] of the same molecule?
The IC50 was greater than 1000 nM.

What about the IC50 [4] of the same molecule?
The IC50 was less than 1 nM.

Which IC50 [1] does the source give for `C=CC(=O)Nc1cc(Nc2ncc(OC)c(-n3c(=O)n(C)c4ccccc43)n2)c(OC)cc1N(C)CCN(C)C` [Compound 57, N-(2-((2-(dimethylamino)ethyl) (methyl)amino)-4-methoxy-5-((5-methoxy-4-(3-methyl-2-oxo-2,3-dihydro-1H-benzo[d]imidazol-1-yl)pyrimidin-2-yl)amino)phenyl)acrylamide] here?
The IC50 was greater than 1000 nM.

And the IC50 [2]?
The IC50 was 10 to 50 nM.

What about the melting point of the same molecule?
Its melting point is 168 to 172 °C.

And the IC50 [3]?
The IC50 was greater than 1000 nM.

And the IC50 [4]?
Its IC50 is 1 to 10 nM.

Which results are given for `C=CC(=O)Nc1cc(Nc2nccc(-n3ccc4ccc(F)cc43)n2)c(OC)cc1N(C)CCN(C)C` [Compound 29, N-(2-((2-(dimethylamino)ethyl)(methyl)amino)-5-((4-(6-fluoro-1H-indol-1-yl)pyrimidin-2-yl)amino)-4-methoxyphenyl)acrylamide]?
IC50 [1]: 100 to 1000 nM; IC50 [2]: < 10 nM; melting point: 164 to 165 °C; IC50 [3]: > 1000 nM; IC50 [4]: < 1 nM

Which results are given for `C=CC(=O)Nc1cc(Nc2nccc(-n3ccc4cc(OCCOC)ccc43)n2)c(OC)cc1N(C)CCN(C)C` [Compound 38, N-(2-((2-(dimethylamino)ethyl)(methyl)amino)-4-methoxy-5-((4-(5-(2-methoxyethoxy)-1H-indol-1-yl)pyrimidin-2-yl)amino)phenyl)acrylamide]?
IC50 [1]: 100 to 1000 nM; IC50 [2]: < 10 nM; melting point: 59 to 61 °C; IC50 [3]: > 1000 nM; IC50 [4]: < 1 nM

Which IC50 [1] does the source give for `C=CC(=O)Nc1cc(Nc2nccc(-n3ccc4cc(C(N)=O)ccc43)n2)c(OC)cc1N(C)CCN(C)C` [Compound 41, 1-(2-((5-acrylamido-4-((2-(dimethylamino)ethyl)(methyl)amino)-2-methoxyphenyl)amino)pyrimidin-4-yl)-1H-indole-5-carboxamide] here?
Its IC50 is 100 to 1000 nM.

What about the IC50 [2] of the same molecule?
Its IC50 is less than 10 nM.

What about the melting point of the same molecule?
Its melting point is 121.3 to 125.1 °C.

What about the IC50 [3] of the same molecule?
The IC50 was greater than 1000 nM.

What about the IC50 [4] of the same molecule?
The IC50 was less than 1 nM.
